{"source": "patent US20140113904A1", "about": "“TREATMENT OF CANCER WITH TOR KINASE INHIBITORS” (SIGNAL PHARMACEUTICALS, LLC, priority 2012, published 2014)", "key": {"mTOR": {"biological_target": "mTOR (Homo sapiens, UniProt P42345)", "assay": "mTOR inhibition (Table 3)", "type": "biochemical", "conditions": "average of 2 or more experiments"}, "pS6 [1]": {"tested_on": "pS6", "assay": "PC3 cellular activity: pS6 (mTORC1) inhibition", "type": "cell-based", "conditions": "Homo sapiens, PC-3; average of 2 or more experiments"}, "pAktS473 [2]": {"tested_on": "pAktS473", "assay": "PC3 cellular activity: pAktS473 (mTORC2) inhibition", "type": "cell-based", "conditions": "Homo sapiens, PC-3; average of 2 or more experiments; read-out: PC3 Cellular Activity pAkt IC50"}, "Oral bioavailability": {"assay": "Oral bioavailability", "set-up": "species or system rodent", "conditions": "in vivo"}, "[3]": {"tested_on": "PC3 prostate cancer cell lines", "assay": "PC3 cellular activity: proliferation", "conditions": "Homo sapiens, PC-3, read-out: PC3 Cellular Activity Prolif IC50"}, "249 kinases": {"biological_target": "249 kinases", "assay": "Single point kinase selectivity assay against 249 kinases", "type": "biochemical", "conditions": "10 μM"}, "FMS": {"biological_target": "FMS (Homo sapiens, UniProt P07333)", "sequence (P07333 20-972, species assumed)": "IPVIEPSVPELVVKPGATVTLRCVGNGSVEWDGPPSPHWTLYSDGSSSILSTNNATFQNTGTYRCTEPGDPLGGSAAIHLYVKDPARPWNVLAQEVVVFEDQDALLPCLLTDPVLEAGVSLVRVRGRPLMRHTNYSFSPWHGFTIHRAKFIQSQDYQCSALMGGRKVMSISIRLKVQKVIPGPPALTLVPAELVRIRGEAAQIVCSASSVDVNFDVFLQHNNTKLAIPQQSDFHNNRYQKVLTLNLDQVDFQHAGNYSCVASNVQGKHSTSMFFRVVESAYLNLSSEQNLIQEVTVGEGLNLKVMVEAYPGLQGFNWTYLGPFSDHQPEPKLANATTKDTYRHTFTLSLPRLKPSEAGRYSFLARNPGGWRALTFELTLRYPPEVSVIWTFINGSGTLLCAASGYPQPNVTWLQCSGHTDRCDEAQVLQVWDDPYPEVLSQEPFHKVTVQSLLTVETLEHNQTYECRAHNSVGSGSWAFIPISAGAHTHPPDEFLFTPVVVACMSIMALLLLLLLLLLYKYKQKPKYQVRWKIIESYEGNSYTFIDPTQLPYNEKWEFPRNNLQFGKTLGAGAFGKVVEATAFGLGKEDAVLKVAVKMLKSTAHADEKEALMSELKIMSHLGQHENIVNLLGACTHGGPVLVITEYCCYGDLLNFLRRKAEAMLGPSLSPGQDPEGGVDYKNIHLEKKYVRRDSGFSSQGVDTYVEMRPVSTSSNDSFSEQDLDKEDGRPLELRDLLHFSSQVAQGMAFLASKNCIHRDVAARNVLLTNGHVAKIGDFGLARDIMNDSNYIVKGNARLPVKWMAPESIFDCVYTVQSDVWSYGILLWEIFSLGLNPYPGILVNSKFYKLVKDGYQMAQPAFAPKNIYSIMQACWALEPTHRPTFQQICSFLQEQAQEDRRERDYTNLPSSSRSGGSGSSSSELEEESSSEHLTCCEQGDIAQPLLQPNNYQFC", "assay": "FMS concentration-response curve", "type": "biochemical"}, "PC3 xenograft": {"tested_on": "PC3 xenograft", "type": "in vivo"}, "pS6 [4]": {"tested_on": "pS6", "assay": "Tumor pS6 after single dose of Compound 6 (PK/PD)", "type": "in vivo, mice", "conditions": "for inhibition at 30 mg/kg: Mus musculus, 30 mg/kg single dose"}, "pAktS473 [5]": {"tested_on": "pAktS473", "assay": "Tumor pAktS473 after single dose of Compound 6 (PK/PD)", "type": "in vivo, mice", "conditions": "Mus musculus, 30 mg/kg single dose"}, "[6]": {"assay": "Compound 6 plasma and tumor levels (PK/PD)", "type": "in vivo, mice", "conditions": "30 mg/kg single dose, by 24 h"}, "4E-BP1(T46)": {"tested_on": "4E-BP1(T46)", "assay": "Phospho-4E-BP1(T46) in PC3 cell lysates, Luminex multiplex", "type": "cell-based, human", "conditions": "PC3 cells, up to concentrations of 10 μM", "text": "(§1) The direct substrate for TORC1 was 4E-BP 1(T46) and indirect downstream substrate was S6RP(S235/S236). The direct substrate for TORC2 was Akt(S473) and indirect downstream substrates measured were GSK3β(S9) and PRAS40(T246). Additionally, the phosphorylation status of Akt(T308), a phosphorylation site for PDK1 was monitored.\nThe multiplex Luminex assay format differs from conventional enzyme-linked immunosorbent assay (ELISA) in that the multiplex capture antibody is attached to a polystyrene bead whereas the ELISA capture antibody is attached to the microplate well. The use of the suspension bead-based technology enables the multiplexing capabilities of the Luminex assays. The xMAP® technology uses 5.6 micron polystyrene microspheres, which are internally dyed with red and infrared fluorophores of differing intensities. Each bead is given a unique number, or bead region, allowing differentiation of one bead from another. Beads covalently bound to different specific antibodies can be mixed in the same assay, utilizing a 96-well microplate format. At the completion of the sandwich immunoassay, beads can be read, using the Luminex 100™ or Luminex 200 detection system, in single-file by dual lasers for classification and quantification of each analyte. […]"}, "S6RP(S235/S236)": {"tested_on": "S6RP(S235/S236)", "assay": "Phospho-S6RP(S235/S236) in PC3 cell lysates, MSD", "type": "cell-based, human", "conditions": "Homo sapiens, PC-3, 1 h, PC3 cells, 1 hour; two values; read-out: IC50 for inhibition of S6RP(S235/S236) phosphorylation", "text": "as §1\n(§2) MSD® biomarker detection assays provide a rapid and convenient method for measuring the total and phosphorylated levels of protein targets within a single small volume sample. These assays are available in both single-plex and multiplex formats. In a single-plex assay, an antibody for a specific protein target is coated on one electrode (or spot) per well. […] MSD Read Buffer that provides the appropriate chemical environment for ECL is added and the plate is read using an MSD SECTOR™ Imager. […] The instrument measures intensity of the emitted light to afford a quantitative measure of the amount of phosphorylated Akt or S6RP present in the sample. […]\n(§3) The assay plate was incubated with 150 μL of MSD Blocker A Solution for 1 hour with shaking at room temperature. […] Then 150 μL of 1×MSD Read Buffer T was added to each well. The plate was read on the SECTOR Imager plate reader. The Excel data was transferred to Activity Base and IC50 values were calculated.\n(§4) All data was analyzed using XLfit from IDBS. […]"}, "Akt(S473)": {"tested_on": "Akt(S473)", "assay": "Phospho-Akt(S473) in PC3 cell lysates, MSD", "type": "cell-based, human", "conditions": "PC3 cells, data not shown", "text": "as §1, §2, §3, §4"}, "[7]": {"assay": "Body weight in Compound 1 PC3 xenograft efficacy studies", "type": "in vivo, SCID mice", "conditions": "rapamycin 4 mg/kg, 3 weeks, data not shown", "experimental": "The BID dose groups were dosed with a 10-hour separation between the morning and evening doses. […] At the end of each study, plasma and/or tumor samples were collected.\nInitial body weights were recorded prior to the initiation of treatment using a digital scale. The percent body weight change during the course of the study was calculated using initial body weight measurements. Body weights of each animal were measured twice a week at the same time that tumor measurements were taken. Body weights were measured more frequently if significant decreases were noted during the course of the study."}}, "note": "pIC50: −log10 of the molar value. Where two headings read alike, the source gives them in different places."}
{"smiles": "O=c1[nH]c2ncc(-c3ccc(-c4nc[nH]n4)cc3)nc2n1CCC1CCOCC1", "note": "[Compound 3]", "values": [{"measurement": "pIC50", "setting": "mTOR", "result": 8.70}, {"measurement": "pIC50", "setting": "pS6 [1]", "result": 7.40}, {"measurement": "pIC50", "setting": "pAktS473 [2]", "result": 7.74}, {"measurement": "oral bioavailability", "setting": "Oral bioavailability", "result": "poor oral bioavailability"}, {"measurement": "pIC50", "setting": "[3]", "result": 6.65}]}
{"smiles": "O=C1CN(CCC2CCOCC2)c2nc(-c3ccc(-c4nc[nH]n4)cc3)cnc2N1", "note": "[Compound 4]", "values": [{"measurement": "oral bioavailability", "setting": "Oral bioavailability", "result": "poor oral bioavailability"}, {"measurement": "pIC50", "setting": "[3]", "result": 6.83}]}
{"smiles": "CC(C)(O)c1ccc(-c2cnc3[nH]c(=O)n(CC4CCOCC4)c3n2)cn1", "note": "[Compound 5]", "values": [{"measurement": "pIC50", "setting": "mTOR", "result": 6.75}, {"measurement": "pIC50", "setting": "pS6 [1]", "result": 5.62}, {"measurement": "pIC50", "setting": "pAktS473 [2]", "result": 5.59}, {"measurement": "pIC50", "setting": "[3]", "result": 5.38}]}
{"smiles": "CC(C)(O)c1ccc(-c2cnc3c(n2)N(CC2CCOCC2)CC(=O)N3)cn1", "note": "[Compound 6]", "values": [{"measurement": "kinases other than mTOR inhibited >80%", "setting": "249 kinases", "result": "only one kinase other than mTOR was inhibited >80%"}, {"measurement": "pIC50", "setting": "FMS", "result": 5.57}, {"measurement": "oral bioavailability", "setting": "Oral bioavailability", "result": "excellent oral bioavailablity"}, {"measurement": "tumor volume inhibition compared to vehicle control", "setting": "PC3 xenograft; 10 mg/kg oral once daily", "result": 18, "unit": "%"}, {"measurement": "tumor volume inhibition compared to vehicle control", "setting": "PC3 xenograft; 25 mg/kg oral once daily", "result": 63, "unit": "%"}, {"measurement": "tumor volume inhibition compared to vehicle control", "setting": "PC3 xenograft; 50 mg/kg oral once daily", "result": 84, "unit": "%"}, {"measurement": "tolerability", "setting": "PC3 xenograft; all dose levels and schedules, 3 weeks of treatment", "result": "well tolerated"}, {"measurement": "PC3 tumor growth", "setting": "PC3 xenograft; oral, once or twice daily or every second day", "result": "significantly inhibited PC3 tumor growth"}, {"measurement": "biomarker (pS6, pAktS473) inhibition in tumor", "setting": "pS6 [4]; 100 mg/kg single dose, through 24 hours", "result": "full biomarker inhibition"}, {"measurement": "inhibition at 30 mg/kg", "setting": "pS6 [4]; 2-8 h", "result": "87 to 93", "unit": "%"}, {"measurement": "inhibition at 30 mg/kg", "setting": "pS6 [4]; 24 h", "result": 43, "unit": "%"}, {"measurement": "inhibition at 30 mg/kg", "setting": "pAktS473 [5]; 2-8 h", "result": "53 to 77", "unit": "%"}, {"measurement": "inhibition at 30 mg/kg", "setting": "pAktS473 [5]; 24 h", "result": 28, "unit": "%"}, {"measurement": "plasma and tumor level of compound", "setting": "[6]", "result": "almost completely cleared"}]}
{"smiles": "CO[C@H]1C[C@@H]2CC[C@@H](C)[C@@](O)(O2)C(=O)C(=O)N2CCCC[C@H]2C(=O)O[C@H]([C@H](C)C[C@@H]2CC[C@@H](O)[C@H](OC)C2)CC(=O)[C@H](C)/C=C(\\C)[C@@H](O)[C@@H](OC)C(=O)[C@H](C)C[C@H](C)/C=C/C=C/C=C/1C", "note": "[rapamycin, reference compound]", "values": [{"measurement": "inhibition of 4E-BP1(T46) phosphorylation", "setting": "4E-BP1(T46)", "result": "not inhibited"}, {"measurement": "pIC50", "setting": "S6RP(S235/S236)", "result": 10.72}, {"measurement": "inhibition of Akt(S473) phosphorylation", "setting": "Akt(S473)", "result": "did not inhibit"}, {"measurement": "change in body weight", "setting": "[7]", "result": "No significant change"}]}
